In US20220125765A1, “PHARMACEUTICAL COMBINATIONS COMPRISING MEBENDAZOLE AND A STRONG OR MODERATE CYP1A2 INHIBITOR” (ZEPHAPHARM LTD, priority 2019, published 2022):

Key:
[1] = Stability in human cryopreserved hepatocytes without and with cimetidine or thiabendazole (Example 6); conditions: human, substrate 1 μM; for half-life at 1 μM: t½
Protocol: Mebendazole (1 μM) was incubated with cryopreserved human hepatocytes for 60 min in the absence and presence of cimetidine at 30, 100 and 300 μM) and thiabendazole at 10, 30 and 100 μM and samples taken at the required time points. The amount of test compound remaining at each time point was analysed by LC-MS/MS. Appropriate control compounds were also incubated along with ethoxycoumarin, which was incubated in the absence and presence of cimetidine and thiabendazole.
The final incubation volume was 500 μL. Two control compounds were included, alongside appropriate vehicle control. A positive control compound, ethoxycoumarin, for CYP1A2 was included. The positive control compound was incubated without inhibitor and in the presence of each inhibitor. The reactions were stopped by transferring 50 μL of incubate to 100 μL acetonitrile containing internal standard at the appropriate time points (0, 5, 10, 20, 40 and 60 min). The termination plates were centrifuged at 2500 rpm at 4° C. for 30 min to precipitate the protein.

[2] = system: human cryopreserved hepatocytes; assay: Stability in human cryopreserved hepatocytes without and with cimetidine or furafylline (Example 5); format: in vitro ADME; conditions: human hepatocytes, largest effect over concentrations tested
Protocol: The final incubation volume was 500 μL. Two control compounds were included with each species, alongside appropriate vehicle control.
The samples were analysed for mebendazole or ethoxycoumarin using LC-MS/MS.
The final incubation volume was 500 μL.
A positive control compound, ethoxycoumarin, for CYP1A2 was included. […] The samples were analysed for mebendazole or ethoxycoumarin using LC-MS/MS.

[3] = Stability in human liver microsomes without and with cimetidine or furafylline (Example 4); format: in vitro ADME; conditions: human liver microsomes, largest effect over concentrations tested
Protocol: A minus cofactor control incubation was included for each compound tested where 0.1 M phosphate buffer pH 7.4 was added instead of NADPH (minus NADPH). […] The samples were analysed for mebendazole or phenacetin using LC-MS/MS.
A minus cofactor control incubation was included for each compound tested where 0.1 M phosphate buffer pH 7.4 was added instead of cofactor (minus NADPH). […] The samples were analysed for mebendazole or phenacetin using LC-MS/MS.

[4] = cryopreserved hepatocytes (suspension), no inhibitor

hepatocyte CLint at 1 µM [1, 4] [µL/min/1e6 cells]	half-life at 1 μM [1, 4] [min]	hepatocyte CLint at 1 µM ([1]; cryopreserved hepatocytes (suspension), with cimetidine 30 µM, cimetidine 30 μM) [µL/min/1e6 cells]	hepatocyte CLint at 1 µM ([1]; cryopreserved hepatocytes (suspension), with cimetidine 100 µM, cimetidine 100 μM) [µL/min/1e6 cells]	hepatocyte CLint at 1 µM ([1]; cryopreserved hepatocytes (suspension), with cimetidine 300 µM, cimetidine 300 μM) [µL/min/1e6 cells]	hepatocyte CLint at 1 µM ([1]; cryopreserved hepatocytes (suspension), with thiabendazole 10 µM, thiabendazole 10 μM) [µL/min/1e6 cells]	hepatocyte CLint at 1 µM ([1]; cryopreserved hepatocytes (suspension), with thiabendazole 30 µM, thiabendazole 30 μM) [µL/min/1e6 cells]	hepatocyte CLint at 1 µM ([1]; cryopreserved hepatocytes (suspension), with thiabendazole 100 µM, thiabendazole 100 μM) [µL/min/1e6 cells]	half-life at 1 μM ([1]; cryopreserved hepatocytes, with cimetidine 30 μM, cimetidine 30 μM) [min]	half-life at 1 μM ([1]; cryopreserved hepatocytes, with cimetidine 100 μM, cimetidine 100 μM) [min]	half-life at 1 μM ([1]; cryopreserved hepatocytes, with cimetidine 300 μM, cimetidine 300 μM) [min]	half-life at 1 μM ([1]; cryopreserved hepatocytes, with thiabendazole 10 μM, thiabendazole 10 μM) [min]	half-life at 1 μM ([1]; cryopreserved hepatocytes, with thiabendazole 30 μM, thiabendazole 30 μM) [min]	half-life at 1 μM ([1]; cryopreserved hepatocytes, with thiabendazole 100 μM, thiabendazole 100 μM) [min]	decrease of mebendazole metabolism in presence of the inhibitor [2] [fold]	inhibition of intrinsic clearance of mebendazole [2] [%]	inhibition of intrinsic clearance of mebendazole [3] [%]	SMILES
105	13.2	99.9	88.8	59.8	8.65	5.35	4.05	13.9	15.6	23.2	160	259	343	–	–	–	CCOc1ccc2ccc(=O)oc2c1
–	–	–	–	–	–	–	–	–	–	–	–	–	–	9.1	89	99	Cc1nc2c([nH]1)c(=O)n(C)c(=O)n2Cc1ccco1 [Furafylline]
